Converted amounts (≈) assume the structure as drawn. Where two headings read alike, the source gives them in different places. Bounds are passed on as bounds.

This note sets out measurements from US20190038556A1, “FORMULATIONS AND CARRIER SYSTEMS INCLUDING COMPOUND INTERACTIVE DOMAINS” (University of Pittsburgh - Of The Commonwealth System of …, priority 2012, published 2019).

Data set [1] can be described thus: Screening of protected amino acid derivatives as solubilizers and inhibitor of crystallization for JP4-039. Type of data set: physicochemical. The protocol: In several studies, we compared a group of ε-Boc-lysine derivatives bearing various modifying groups on the α-NH2 position. […] FIG. 1 illustrates structures of various amino acid derivatives studied in solubility studies of JP4-039 in Table 3. […] In Table 3, the followings designations are used: U—Initially soluble but unstable after 5 min; V—forming vesicles; I—insoluble; and S—soluble.
1(b). Screening of protected amino acid derivatives as solubilizers and inhibitor of crystallization for JP4-039. α-acetyl-ε-Boc-lysine, α-iso-butoxycarbamoyl-ε-Boc-lysine were synthesized from α-NH2-ε-Boc-lysine (1 mmole) dissolved in 5 mL of saturated sodium bicarbonate solution by adding a 4-fold excess of acetyl anhydride or isobutyl chloroformate dissolved in 5 mL of THF over a period of 5 minutes, respectively. THF was removed from the reaction mixture, the remaining mixture was diluted with 50 mL of ethyl acetate. The organic phase was washed with 20 mL of saturated NaHCO3, saline, citric acid (0.5 M) and water sequentially. The organic phase was dried over anhydrous sodium sulfate, and the solvent was removed. The solid residues were recrystallized from ethyl acetate/hexanes mixture. These derivatives, together with a panel of commercially available amine protected derivatives of lysine, phenylalanine, and glycine were prepared as 1-100 mM solution or suspension in 0.1 M Na2HPO4 buffer. Meanwhile, 0.447 μg of JP4-039 dissolved in 5 μL of methanol was added to each well of a 96-well polystyrene plate. One hundred μL of amino acid solution/suspension were added to the methanol solution and mixed well. The physical status of the samples in each well was inspected visually for the physical appearance of brown crystals periodically over 2 h. Some samples were photographed under a microscope after 20 min.

For data set [2] the following is noted: for Physical form on hydration: 1 mg at 1 mg/ml. The text has this: Additional representative studies of paclitaxel PTX loaded onto a carrier agent including only a hydrophilic segment, region or domain conjugated to a drug-interactive segment, region or domain are set forth below.
The nature of the next data set: physchem. The text has this: The exact mechanism for the protection of ECGC against oxygen in the form of complex is unknown.
The nature of data set [3]: Particle size measurement by laser dynamic light scattering. The class given is physicochemical. As to conditions: for Size +/− SD: agent formulated with multi-chain PEGylated micelle-forming surfactant; for Particle Sizes w/o JP4-039: empty micelles. The method, then: 1(f). Particle size measurement. […] Samples were further diluted ten times in distilled water and sizes were measured by laser dynamic light scattering using a particle sizer (Zetasizer Nano ZS instrument, available from Malvern Instruments Ltd of Worcestershire, United Kingdom). Size measurement of emulsion particles were conducted using a Coulter N4 particle sizer after a 100-fold dilution in saline.

Data set [4] can be described thus: Critical micelle concentration (Eosin Y red shift). The class given is physicochemical. The protocol:
1(d). Critical micelle concentration (CMC). CMC was determined based on the red shift of the maximal absorption of Eosin Y when incorporated into more hydrophobic microenvironment in the core of micelle. Eosin Y solution was added to a final concentration of 1 mM to a series of surfactant solution prepared in distilled water and incubated for 30 minute at room temperature. OD542 nm was measured and plotted against surfactant concentration from which CMC values were estimated.

Data set [5] is described as follows: PTX loading and formulation stability of PTX/PEG-Fmoc2 mixed micelles (HPLC). Type of data set: physicochemical. The text has this:
DLC (%)=[weight of drug used/(weight of polymer+drug used)]×100%
DLE (%)=(weight of loaded drug/weight of input drug)×100%
2(b)(iv). Preparation and biophysical characterization of PTX/PEG-Fmoc2 mixed micelles. Thin-film hydration method was utilized for preparation of PTX/PEG-Fmoc2 mixed nanomicelles. PEG-Fmoc2 and PTX in chloroform were well mixed in a glass tube at designated molar ratios. A thin film of carrier/drug mixture was generated through removal of the organic solvent by a gentle stream of nitrogen. The trace amount of solvent was further removed via vacuum for 2 h. Then the film was hydrated and suspended in DPBS by vortex to obtain a clear solution of PTX/PEG-Fmoc2 mixed nanomicelles. […]
The size distribution of PTX/PEG-Fmoc2 mixed nanomicelles was examined by dynamic light scattering (DLS) via a Malvern Zeta Nanosizer, and the morphology was observed by transmission electron microscopy (TEM) after negative staining. The CMC measurement was performed as reported before with pyrene as a fluorescence probe. To quantify PTX in the micelles, PTX was extracted by methanol, and detected by Waters Alliance 2695-2998 high-performance liquid chromatography (HPLC) system with a RP-18 column (250 mm×4.6 mm) equipped with a UV detector at 227 nm at room temperature. […] The drug loading capacity (DLC) and efficiency (DLE) were calculated as set forth above.

The mark [6] stands for this setting: carrier Methoxy-PEG550-α-Fmoc-lysyl-ε-oleylamide (20 mg/ml).
[7] abbreviates: aqueous with cosolvent or surfactant or cyclodextrin.

As to `CC(=O)N[C@@H](CCCCNC(=O)OCc1ccccc1)C(=O)O` [Ace-(Cbz)-Lys-OH], the “Solubility status of JP4-039 with amino acid derivative” value (“Solubility status” below) is given as “I” in data set [1] (molar ratio 5); “I” in data set [1] (molar ratio 10); “I” in data set [1] (molar ratio 20); “I” in data set [1] (molar ratio 30); “I” in data set [1] (molar ratio 40); “S” in data set [1] (molar ratio 50).
For the molecule `O=C(N[C@@H](Cc1ccccc1)C(=O)O)c1ccccc1` [Benz-Phe-OH], the “Solubility status” value in data set [1] (molar ratio 5) was “I”; in data set [1] (molar ratio 50) it was “S”.
Take `CC(=O)NCCCC[C@H](NC(=O)OCc1ccccc1)C(=O)O` [CBz-(Ace)-Lys-OH]: the “Solubility status” value in data set [1] (molar ratio 5) is on record as “I”; in data set [1] (molar ratio 10), “I”; in data set [1] (molar ratio 20), “I”; in data set [1] (molar ratio 30) it was “I”; in data set [1] (molar ratio 40), “I”; in data set [1] (molar ratio 50), “S”.
`CC(C)(C)OC(=O)NCCCC[C@H](NC(=O)OCc1ccccc1)C(=O)O` [Cbz-(tBoc)-Lys-OH]: the “Solubility status” value in data set [1] (molar ratio 5) is “I”; in data set [1] (molar ratio 10) it was “I”; in data set [1] (molar ratio 20), “I”; in data set [1] (molar ratio 30), “I”; in data set [1] (molar ratio 40) it was “S”; in data set [1] (molar ratio 50) it was “S”.
As to `O=C(O)CCNC(=O)OCc1ccccc1` [Cbz-β-Ala-OH], the “Solubility status” value in data set [1] (molar ratio 5), in data set [1] (molar ratio 10), in data set [1] (molar ratio 20), in data set [1] (molar ratio 30), in data set [1] (molar ratio 40) and in data set [1] (molar ratio 50) was “I” in each case.
Turning to `COc1cc(/C=C/C(=O)CC(=O)/C=C/c2ccc(O)c(OC)c2)ccc1O` [Curcumin], the “Stability of suspension upon hydration” value in data set [2] was roughly 1 h. For the same molecule, the “Physical form on hydration” value is listed as “micelle solution” in data set [2] (setting [6]); 1 mg at 1 mg/ml, viscous gel in data set [2] (carrier Methoxy-PEG1000-α-Fmoc-lysyl-ε-(α-Fmoc-ε-Boc lysine), 20 mg/ml); “suspension” in data set [2] (carrier Methoxy-PEG1000-α-Fmoc-lysyl-ε-(α-Fmoc-ε-Boc lysine), 20 mg/ml, listed as curcumin).
Take `O=C(NCCCC[C@H](NC(=O)OCc1ccccc1)C(=O)O)OCc1ccccc1` [Di-(Cbz)-Lys-OH]: the “Solubility status” value in data set [1] (molar ratio 5) is reported as “I”; in data set [1] (molar ratio 10), “I”; in data set [1] (molar ratio 20), “S”; in data set [1] (molar ratio 30), “S”; in data set [1] (molar ratio 40) it was “S”; in data set [1] (molar ratio 50), “S”.
Take `C=CC[C@@H]1/C=C(\C)C[C@H](C)C[C@H](OC)[C@H]2O[C@@](O)(C(=O)C(=O)N3CCCC[C@H]3C(=O)O[C@H](/C(C)=C/[C@@H]3CC[C@@H](O)[C@H](OC)C3)[C@H](C)[C@@H](O)CC1=O)[C@H](C)C[C@@H]2OC` [FK506, tacrolimus]: the “Drug:carrier mole ratio” value in “physchem” is recorded as 1:1 to 1:1.5. The solubility in “physchem” (setting [7]) turned out to be 2500 µg/mL (≈ 3110 µM). The “Size +/− SD” value in data set [3] is given as 62.3 +/− 9 nm.
`CC(C)(C)OC(=O)NCCCC[C@H](NC(=O)OCC1c2ccccc2-c2ccccc21)C(=O)O` [Fmoc-(tBoc)-Lys-OH, α-Fmoc-ε-tBoc-lysine]: the “Solubility status” value in data set [1] (molar ratio 5), in data set [1] (molar ratio 10), in data set [1] (molar ratio 20), in data set [1] (molar ratio 30), in data set [1] (molar ratio 40) and in data set [1] (molar ratio 50) was “S” throughout. Also, in data set [3] (prepared in 0.1 M KHCO3), the “Measured diameters of the majority of particles” value is listed as 2-5 nm.
As for `CC(C)c1onc(-c2c(Cl)cccc2Cl)c1COc1ccc(/C=C/c2cccc(C(=O)O)c2)c(Cl)c1` [GW4064], in the data set “physchem”, the “Drug:carrier mole ratio” value was 2:1 to 1:1, the Soluble at was greater than 5 mg/mL and the solubility was found to be 0.002 µg/mL (≈ 0.00368 µM). The “Size +/− SD” value in data set [3] is recorded as 35.4 +/− 12 nm.
Turning to `COc1ccc2c(c1)c(CC(=O)O)c(C)n2C(=O)c1ccc(Cl)cc1` [Indomethacin], the “Physical form on hydration” value in data set [2] (setting [6]) is listed as “micelle solution”.
Turning to `O=C([O-])c1c(Cl)c(Cl)c(Cl)c(Cl)c1-c1c2cc(I)c(=O)c(I)c-2oc2c(I)c([O-])c(I)cc12.[Na+].[Na+]` [Rose Bengal], in “physchem”, the “Drug:carrier mole ratio” value is given as 2.5:1 to 2:1^, the Soluble at is greater than 5 mg/mL and the solubility result is recorded as “freely”. Besides, the “Size +/− SD” value in data set [3] is listed as 101.6 +/− 7 nm.
Turning to `CC/C(=C(\c1ccccc1)c1ccc(OCCN(C)C)cc1)c1ccccc1` [Tamoxifen], the “Stability of suspension upon hydration” value in data set [2] was roughly 1 h. Also, the “Physical form on hydration” value in data set [2] (setting [6]) is “micelle solution”.
Turning to `C=CC1=C(C)c2cc3[nH]c(cc4nc(cc5[nH]c(cc1n2)c(C)c5CCC(=O)O)C(CCC(=O)O)=C4C)c(C)c3C=C` [protoporphyrin IX], in “physchem”, the “Drug:carrier mole ratio” value is given as 1:6 to 1:10 and the solubility is roughly 1 µg/mL (≈ 1.78 µM). The solubility in the data set “physchem” (setting [7]) turned out to be 500 µg/mL (≈ 889 µM).
With `CC(C)(C)OC(=O)N[C@@H](CCCCNC(=O)OCc1ccccc1)C(=O)O` [tBoc-(Cbz)-Lys-OH], the “Solubility status” value in data set [1] (molar ratio 5) is “I”; in data set [1] (molar ratio 10), “I”; in data set [1] (molar ratio 20) it was “I”; in data set [1] (molar ratio 30), “I”; in data set [1] (molar ratio 40), “I”; in data set [1] (molar ratio 50) it was “S”.
Isb-(Cbz)-Lys-OH: the “Solubility status” value in data set [1] (molar ratio 5) is “I”; in data set [1] (molar ratio 10), “S”; in data set [1] (molar ratio 20), “S”; in data set [1] (molar ratio 30), “S”; in data set [1] (molar ratio 40), “S”; in data set [1] (molar ratio 50), “S”.
As to “Monomethoxy PEG2,000-lysyl-(α-Fmoc-ε-oleoyl lysine)2 [lipopeptide 3]”, in data set [4], the CMC stood at 4.2 µM. In addition, the “Particle Sizes w/JP4-039” value in data set [3] (JP4-039 loaded micelles) is on record as 94.2 +/− 1.7 nm. The “Particle Sizes w/o JP4-039” value in data set [3] is 106.7 +/− 2.5 nm.
As to “Monomethoxy PEG2,000-α-Fmoc-ε-Oleoyl Lysine [lipopeptide 1]”, the CMC in data set [4] stood at 5.0 µM.
For “Monomethoxy PEG5,000-lysyl-[lysyl-(α-Fmoc-ε-oleoyl lysine)2]2 [lipopeptide 4]”, the CMC in data set [4] is 3.4 µM. Also, the “Particle Sizes w/o JP4-039” value in data set [3] is recorded as 132.1 +/− 8.5 nm.
Consider “PEG5000-lysyl-(α-Fmoc-ε-oleic acid-lysine)2 [PEG-Fmoc-OA]”, for which, in data set [5], the “Stability in solution at maximum PTX loading” value was “several hours”. In data set [5] (w/w, stable complexes in aqueous solution), the “PTX loading capacity (maximum)” value was found to be 15%.

A word on the solubility: it is how much of the substance goes into solution per volume. Lower therefore signals little dissolved substance.
